According to US20250092058A1 (priority 2018, published 2025):
Where two headings read alike, the source gives them in different places.

Columns and labels:
T24 = assay: MTT assay T24; type: cell-based; conditions: Table 5 lower part; T24 bladder cancer
Protocol: (§1) MTT assays. […] Viable cells (2500 cells per well) were plated in each well in 96-well plates. After an overnight incubation, cells were treated with and without relevant drugs alone and in combination, respectively, at various concentrations and incubated for 72 hours. MTT, a colorimetric substrate, was added to a final concentration of 0.4 mg/ml to each well. Cells in 96-well plates were further incubated in a 5% CO2 incubator at 37° C. for 4 hours, and then the medium was aspirated. The MTT metabolic product formazan was solubilized by adding 200 ul of DMSO to each well. Absorbance in the relevant wells was measured at 570 nm using an Ultra Microplate Reader (Bio-Tek Instruments). Each experiment was performed at least in triplicate. IC50/EC50 values were calculated from a series of drug dose ranges for each analyzed compound, using GraphPad Prism 6 (GraphPad Software, Inc., La Jolla, CA).
(§2) The inhibition of cell growth and viability in various cancer cell types were tested using MTT assay for references.

HT-3 = assay: MTT assay HT-3; type: cell-based, human; conditions: Table 5 lower part
Protocol: as §1, §2

UMUC-3 = tested on: UMUC-3
Protocol: as §1, §2

H1376 = tested on: H1376
Protocol: as §1, §2

RT4 = assay: MTT assay RT4; type: cell-based; conditions: Table 5 lower part; RT4 bladder cancer
Protocol: as §1, §2

A2008 = assay: MTT assay A2008; type: cell-based
Protocol: as §1, §2

FaDu = assay: MTT assay FaDu; type: cell-based; conditions: Table 5 lower part; FaDu head-and-neck cancer
Protocol: as §1, §2

PDX14244 and PDX27454 = assay: Pancreatic PDX14244 (left flank) and colorectal PDX27454 (right flank) in the same SCID mice; type: in vivo; conditions: oral weekly for 4 times
Protocol: Human xenograft tumors used.
The vehicle is the same aqueous suspension without FL7N-1. Experimental SCID mice were subcutaneously implanted with 30-40 mg individual PDX tumors (isolated from maintenance mice) at the flank area (left side for PDX14244, and right side for PDX27454) of SCID mice. […] The animal model of PDX tumors was orally treated weekly for 3 times as shown with black arrows. […] Thus, FL7N-1 may be a priority candidate to be developed for treatment of children rare disease retinoblastoma.
(§3) The vehicle is the same think aqueous suspension without drug. Experimental SCID mice were subcutaneously implanted with 30-40 mg individual PDX tumors (isolated from maintenance mice) at the flank area (left side for PDX14244, and right side for PDX27454) of SCID mice. […] The animal model of PDX tumors was orally treated weekly for 3 times as shown with black arrows.
as §3, with “for 4” for “for 3”, “times (one cycle/course,” for “times”, “black arrows).” for “black arrows.”
as §3, with “times in two doses due to drug limitation then (as” for “times as”, “black arrows).” for “black arrows.”

HepG2 = type: cell-based, human
HCT116 = type: cell-based, human
HeLa = type: cell-based, human
[1] = tested on: HepG2, A549, HeLa, HCT116; conditions: four cell lines, in words
A549 [2] = type: cell-based, human
HCT116 cells = assay: ROS production, DCFH-DA probe; type: cell-based, human; conditions: 5-100 nM vs vehicle control
Description: Under the influence of pro-apoptotic signals, the elevation of reactive oxygen species (ROS) may serve as a secondary messenger to upregulate the expression of pro-apoptotic proteins, thereby inducing cellular apoptosis.

UOK262 = tested on: UOK262
Protocol: as §1, §2

UOK151 = tested on: UOK151
Protocol: as §1, §2

SW620 xenograft tumors = conditions: oral weekly for 1-2 times
Description: Human xenograft tumors used. In this invention disclose, human SW620 (colorectal), HT29 (colorectal) and HT-3 (retinoblastoma) cancer cell line-established xenograft tumors were used. Human tumor cell line-derived xenograft tumors are initially established by subcutaneously injecting 2-5×10^6 cultured cancer cells in a volume of 100-150 p L medium into the flank area of severe combined immunodeficiency (SCID) mice. The derived tumors are then passed a couple of generations in mice by transplanting 30-50 mg non-necrotic tumor mass via a trocar for experiments or maintenance. […] PDX tumors were originally established on severe Combined Immunodeficiency (SCID) mice from pancreatic and colorectal cancer patient tumor tissues obtained from metastatic sites of the disease in the clinic.
Human SW620 xenograft tumors were initially established by subcutaneously injection of 2-5×10^6 SW620 cells in a volume of 100-150 μL medium. Mouse models of SW620 xenografts were set up by subcutaneously inoculating 30-40 mg tumor tissue (isolated from tumor maintenance SCID mice) on the flank of SCID mice. Treatment with individual compounds was initiated 7-14 days after the transplanted tumors reached 100-200 mm^3 (designated day 0). The treatment schedule is weekly for 1-2 times in a series of dose levels based on the available drug amounts then. The individual compounds were formulated in an organic solvent-free with HPβCD in 2% HPMC (hydroxypropyl methylcellulose) and 1% PG (propylene glycol) in saline (a thick aqueous suspension) for oral administration. The vehicle is the same thick aqueous suspension without drug.

A549 [3] = assay: MTT assay A549; type: cell-based, human; conditions: Table 9
Protocol: MTT assays. […] Each experiment was performed at least in triplicate.

PANC1-GFPcODC cells = assay: Trypan blue exclusion, PANC1-GFPcODC cells; type: cell-based, human; conditions: 4-day treatment
Description: Generation of A2780-GFPcODC, A2780CP-GFPcODC and PANC1GFPcODC cells and fluorescence microscopy to detect stem-like and drug resistant green cells. The retroviral expression vector pQCXIN-ZsGreen-cODC (ornithine decarboxylase), containing a green fluorescence marker, was kindly provided by Dr. Frank Pajonk (Vlashi E, et al., In vivo imaging, tracking, and targeting of cancer stem cells. J Natl Cancer Inst. 2009; 101: 350-9). The retroviral particles collected from packaging cells that transfected with the above vector were infected into A2780, A2780CP and PANC1 cells, respectively. The transfected cell pool was used for experiments. […] Cell images were acquired digitally using the Olympus IX73 Inverted Score s (Olympus). Percentages of living cells were obtained from the average of the total cells counted from 10 microscopic fields.
Next, we applied the same system to generate pancreatic cancer PANC1-GFPcODC cells.

A2780CP70-GFPcODC cells = assay: GFPcODC drug-resistant cell tracking, A2780CP; type: cell-based, human; conditions: 10 μM, 72 h
Description: Generation of A2780-GFPcODC, A2780CP-GFPcODC and PANC1GFPcODC cells and fluorescence microscopy to detect stem-like and drug resistant green cells. The retroviral expression vector pQCXIN-ZsGreen-cODC (ornithine decarboxylase), containing a green fluorescence marker, was kindly provided by Dr. Frank Pajonk (Vlashi E, et al., In vivo imaging, tracking, and targeting of cancer stem cells. J Natl Cancer Inst. 2009; 101: 350-9). The retroviral particles collected from packaging cells that transfected with the above vector were infected into A2780, A2780CP and PANC1 cells, respectively. The transfected cell pool was used for experiments. The transfected cells were treated with and without cisplatin or FL118 alone or in combination for defined times. Cell images were acquired digitally using the Olympus IX73 Inverted Score s (Olympus). Percentages of living cells were obtained from the average of the total cells counted from 10 microscopic fields.
To test this, we used a novel approach developed in Dr. Pajonk's lab for the live tracking of drug resistant cells (Vlashi E, et al., In vivo imaging, tracking, and targeting of cancer stem cells. J Natl Cancer Inst. 2009; 101: 350-9). This approach takes advantage of reduced 26S proteasome activity of drug resistant cells. […]

[4] = Table 5 lower part, UMUC-3 bladder cancer
[5] = Table 5 lower part, H1376 bladder cancer
[6] = Table 5 lower part, A2008 ovarian cancer

## CCc1ccc(-c2c3c(nc4cc5c(cc24)OCO5)-c2cc4c(c(=O)n2C3)COC(=O)[C@]4(O)CC)cc1 [7Q 6]
T24
  IC50/EC50: 0.19 nM
HT-3; HT-3
  IC50/EC50: 3.11 nM
UMUC-3; [4]
  IC50/EC50: 0.4 nM
H1376; [5]
  IC50/EC50: 386 nM
RT4
  IC50/EC50: 1.51 nM
A2008; [6]
  IC50/EC50: 1.34 nM
FaDu
  IC50/EC50: 0.85 nM
PDX14244 and PDX27454
  antitumor activity, 7Q-series (1): much higher antitumor activity than the other compounds in this 7Q-series (1)

## CC[C@@]1(O)C(=O)OCc2c1cc1n(c2=O)Cc2c-1nc1cc3c(cc1c2-c1cc(OC)cc(OC)c1)OCO3 [7Q 24]
T24
  IC50/EC50: 0.08 nM
HT-3; HT-3
  IC50/EC50: 3.59 nM
UMUC-3; [4]
  IC50/EC50: 0.21 nM
H1376; [5]
  IC50/EC50: 246 nM
RT4
  IC50/EC50: 1.44 nM
A2008; [6]
  IC50/EC50: 1.95 nM
FaDu
  IC50/EC50: 0.68 nM
PDX14244 and PDX27454
  antitumor activity, 7Q-series (1): much higher antitumor activity than the other compounds in this 7Q-series (1)

## CC[C@@]1(O)C(=O)OCc2c1cc1n(c2=O)Cc2c-1nc1cc3c(cc1c2-c1ccc(F)cc1)OCO3 [Compound 7b]
HepG2
  IC50: 46.3 ± 5.4 nM
HCT116
  IC50: 32.7 ± 3.3 nM
HeLa
  IC50: 11.1 ± 6.7 nM
[1]
  cytotoxic / anti-proliferation ability: good anti-proliferation ability in all four cell lines
A549 [2]
  IC50: 19.8 ± 2.9 nM

## CC[C@@]1(O)C(=O)OCc2c1cc1n(c2=O)Cc2c-1nc1cc3c(cc1c2-c1ccc(F)c(OC)c1)OCO3 [Compound 7h]
HCT116 cells
  ROS production: significantly increased

## CC[C@@]1(O)C(=O)OCc2c1cc1n(c2=O)Cc2cc3c(CN(C)C)c(O)ccc3nc2-1 [Topotecan, reference compound]
T24
  IC50/EC50: 37.2 nM
HT-3; HT-3 cervical carcinoma
  IC50/EC50: 83.42 nM
UMUC-3; [4]
  IC50/EC50: 52.8 nM
UMUC-3; Table 8, UMUC-3
  IC50/EC50: 52.8 nM
H1376; [5]
  IC50/EC50: >500 nM
H1376; Table 8, H1376
  IC50/EC50: >500 nM
UOK262; Table 5 lower part, UOK262 kidney cancer
  IC50/EC50: >200 nM
UOK262; Table 8, UOK262
  IC50/EC50: >200 nM
UOK262; Table 10, UOK262
  IC50/EC50: >200 nM
UOK151; Table 5 lower part, UOK151 kidney cancer
  IC50/EC50: >200 nM
UOK151; Table 8, UOK151
  IC50/EC50: >200 nM
UOK151; Table 10, UOK151
  IC50/EC50: >200 nM
RT4
  IC50/EC50: 96.4 nM
A2008; [6]
  IC50/EC50: 46.1 nM
FaDu
  IC50/EC50: 26.63 nM

## CC[C@@]1(O)C(=O)OCc2c1cc1n(c2=O)Cc2c-1nc1cc3c(cc1c2-c1ccoc1)OCO3 [W-b3]
SW620 xenograft tumors
  antitumor activity: much higher antitumor activity than the other compounds in this Wb-series
A2008; Table 9, A2008
  IC50/EC50: 16.15 nM
A549 [3]
  IC50/EC50: 0.92 nM

## CC[C@@]1(O)C(=O)OCc2c1cc1n(c2=O)Cc2c-1nc1cc3c(cc1c2-c1cccs1)OCO3 [W-b6]
SW620 xenograft tumors
  antitumor activity: much higher antitumor activity than the other compounds in this Wb-series
A2008; Table 9, A2008
  IC50/EC50: 11.1 nM
A549 [3]
  IC50/EC50: 1.2 nM

## N.N.[Cl][Pt][Cl] [cisplatin]
PANC1-GFPcODC cells; 50 μM
  GFP-negative (drug sensitive) PANC1 cells killed: 92%
PANC1-GFPcODC cells; 20 μM cisplatin, 10 nM FL118, or both
  cell death: ~18%
A2780CP70-GFPcODC cells
  total cell population killed: 90%
